These results are taken from ChEMBL document CHEMBL5678818, “Discovery of potent SOS1 inhibitors that block RAS activation via disruption of the RAS-SOS1 interaction” (Proc Natl Acad Sci U S A, 2019).

The target in experiment [1] is ALK tyrosine kinase receptor (Homo sapiens) (UniProt Q9UM73). Description: Inhibition of ALK (unknown origin) assessed as residual activity at 100 nM by KINOMEscan analysis relative to control.
The target of experiment [2] is Dual specificity protein kinase CLK1 (Homo sapiens) (UniProt P49759). Description: Inhibition of CLK1 (unknown origin) assessed as residual activity at 100 nM by KINOMEscan analysis relative to control.
The target of experiment [3] is Microtubule-associated serine/threonine-protein kinase 1 (Homo sapiens) (UniProt Q9Y2H9). Briefly: Inhibition of MAST1 (unknown origin) assessed as residual activity at 100 nM by KINOMEscan analysis relative to control.
In experiment [4] the test system is Proto-oncogene tyrosine-protein kinase receptor Ret (Homo sapiens), P07949 [M918T]. Description: Inhibition of RET M918T mutant (unknown origin) assessed as residual activity at 100 nM by KINOMEscan analysis relative to control.
In experiment [5] the target is Receptor tyrosine-protein kinase erbB-3 (Homo sapiens) (UniProt P21860). Description: Inhibition of ERBB3 (unknown origin) assessed as residual activity at 100 nM by KINOMEscan analysis relative to control.
Experiment [6] has as its target T1, Serine/threonine-protein kinase DCLK2 (Homo sapiens) (UniProt Q8N568).
T1 sequence (whole entry): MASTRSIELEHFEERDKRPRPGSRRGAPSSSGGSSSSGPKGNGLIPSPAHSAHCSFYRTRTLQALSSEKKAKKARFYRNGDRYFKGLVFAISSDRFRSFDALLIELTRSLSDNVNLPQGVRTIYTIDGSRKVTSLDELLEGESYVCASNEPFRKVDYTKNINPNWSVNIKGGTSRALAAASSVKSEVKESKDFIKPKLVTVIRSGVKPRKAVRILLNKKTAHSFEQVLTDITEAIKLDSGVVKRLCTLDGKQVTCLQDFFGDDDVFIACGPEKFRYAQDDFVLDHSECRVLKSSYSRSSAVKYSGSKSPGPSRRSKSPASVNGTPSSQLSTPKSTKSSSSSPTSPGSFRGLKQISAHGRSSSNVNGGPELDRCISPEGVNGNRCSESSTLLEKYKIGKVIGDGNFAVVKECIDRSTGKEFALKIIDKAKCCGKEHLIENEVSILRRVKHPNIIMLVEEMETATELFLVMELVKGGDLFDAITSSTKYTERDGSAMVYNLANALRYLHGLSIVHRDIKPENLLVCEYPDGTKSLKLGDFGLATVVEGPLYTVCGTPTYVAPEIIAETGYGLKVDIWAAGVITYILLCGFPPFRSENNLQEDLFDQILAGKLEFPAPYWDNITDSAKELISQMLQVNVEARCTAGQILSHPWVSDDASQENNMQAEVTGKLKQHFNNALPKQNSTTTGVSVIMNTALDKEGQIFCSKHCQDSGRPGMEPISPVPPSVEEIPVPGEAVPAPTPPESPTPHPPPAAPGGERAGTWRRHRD
Description: Inhibition of DCAMKL2 (unknown origin) assessed as residual activity at 100 nM by KINOMEscan analysis relative to control.

In experiment [7] the target is T2, Phosphorylase b kinase gamma catalytic chain, liver/testis isoform (Homo sapiens) (UniProt P15735).
T2 sequence (whole entry): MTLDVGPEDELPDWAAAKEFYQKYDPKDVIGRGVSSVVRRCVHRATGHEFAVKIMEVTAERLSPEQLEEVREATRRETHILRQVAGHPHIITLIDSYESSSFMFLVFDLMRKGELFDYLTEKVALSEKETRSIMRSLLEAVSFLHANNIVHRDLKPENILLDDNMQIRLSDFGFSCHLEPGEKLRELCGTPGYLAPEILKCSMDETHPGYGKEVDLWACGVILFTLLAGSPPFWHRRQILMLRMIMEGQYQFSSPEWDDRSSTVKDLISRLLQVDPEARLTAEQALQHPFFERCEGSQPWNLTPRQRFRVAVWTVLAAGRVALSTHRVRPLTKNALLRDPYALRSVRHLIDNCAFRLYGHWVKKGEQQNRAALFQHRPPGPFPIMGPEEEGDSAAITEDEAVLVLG
Description: Inhibition of PHKG2 (unknown origin) assessed as residual activity at 100 nM by KINOMEscan analysis relative to control.

For experiment [8], the target named is T3, Mitogen-activated protein kinase 15 (Homo sapiens) (UniProt Q8TD08).
T3 sequence (whole entry): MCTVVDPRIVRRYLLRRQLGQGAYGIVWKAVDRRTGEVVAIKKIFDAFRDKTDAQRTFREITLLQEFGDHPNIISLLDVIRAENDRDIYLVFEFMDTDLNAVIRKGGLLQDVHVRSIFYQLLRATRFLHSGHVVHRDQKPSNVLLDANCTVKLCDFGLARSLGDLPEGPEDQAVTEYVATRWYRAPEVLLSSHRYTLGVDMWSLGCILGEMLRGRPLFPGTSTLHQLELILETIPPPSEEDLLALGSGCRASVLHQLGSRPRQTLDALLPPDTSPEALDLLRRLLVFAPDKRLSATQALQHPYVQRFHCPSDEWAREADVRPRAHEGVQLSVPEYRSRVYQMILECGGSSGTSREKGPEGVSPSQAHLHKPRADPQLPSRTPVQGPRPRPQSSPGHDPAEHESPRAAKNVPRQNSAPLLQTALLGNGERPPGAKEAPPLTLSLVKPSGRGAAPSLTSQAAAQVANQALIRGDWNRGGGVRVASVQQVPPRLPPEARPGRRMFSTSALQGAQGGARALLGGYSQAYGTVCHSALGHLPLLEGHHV
Description: Inhibition of ERK8 (unknown origin) assessed as residual activity at 100 nM by KINOMEscan analysis relative to control.

Experiment [9] concerns Epidermal growth factor receptor (Homo sapiens), P00533 [G719S]. Description: Inhibition of EGFR G719S mutant (unknown origin) assessed as residual activity at 100 nM by KINOMEscan analysis relative to control.
Experiment [10] concerns the target Ephrin type-A receptor 5 (Homo sapiens) (UniProt P54756). Description: Inhibition of EPHA5 (unknown origin) assessed as residual activity at 100 nM by KINOMEscan analysis relative to control.
Experiment [11] deals with Rho-associated protein kinase 1 (Homo sapiens) (UniProt Q13464). Briefly: Inhibition of ROCK1 (unknown origin) assessed as residual activity at 100 nM by KINOMEscan analysis relative to control.
Experiment [12] has as its target Receptor tyrosine-protein kinase erbB-4 (Homo sapiens) (UniProt Q15303). Briefly: Inhibition of ERBB4 (unknown origin) assessed as residual activity at 100 nM by KINOMEscan analysis relative to control.
Experiment [13] concerns the target Serine/threonine-protein kinase/endoribonuclease IRE1 (Homo sapiens) (UniProt O75460). Briefly: Inhibition of ERN1 (unknown origin) assessed as residual activity at 100 nM by KINOMEscan analysis relative to control.
Experiment [14] has as its target Tyrosine-protein kinase SYK (Homo sapiens) (UniProt P43405). Description: Inhibition of SYK (unknown origin) assessed as residual activity at 100 nM by KINOMEscan analysis relative to control.

Sequence of Dual specificity protein kinase CLK1 (Homo sapiens) (P49759 whole entry, looked up): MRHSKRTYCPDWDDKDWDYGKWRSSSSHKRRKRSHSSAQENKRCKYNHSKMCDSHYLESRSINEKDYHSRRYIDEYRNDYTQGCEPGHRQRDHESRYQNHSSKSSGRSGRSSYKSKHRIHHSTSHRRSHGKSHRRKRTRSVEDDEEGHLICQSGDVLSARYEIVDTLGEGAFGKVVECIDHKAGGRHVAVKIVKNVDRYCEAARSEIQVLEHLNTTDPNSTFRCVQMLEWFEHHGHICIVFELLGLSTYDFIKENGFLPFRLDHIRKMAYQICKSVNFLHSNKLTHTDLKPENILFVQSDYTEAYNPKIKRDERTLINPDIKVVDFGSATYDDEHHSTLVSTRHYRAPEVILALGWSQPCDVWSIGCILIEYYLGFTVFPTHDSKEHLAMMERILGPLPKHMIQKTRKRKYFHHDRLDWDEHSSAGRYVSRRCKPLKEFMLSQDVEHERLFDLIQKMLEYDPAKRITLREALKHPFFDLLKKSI
Sequence of Proto-oncogene tyrosine-protein kinase receptor Ret (Homo sapiens), P07949 [M918T] (P07949 whole entry M918T): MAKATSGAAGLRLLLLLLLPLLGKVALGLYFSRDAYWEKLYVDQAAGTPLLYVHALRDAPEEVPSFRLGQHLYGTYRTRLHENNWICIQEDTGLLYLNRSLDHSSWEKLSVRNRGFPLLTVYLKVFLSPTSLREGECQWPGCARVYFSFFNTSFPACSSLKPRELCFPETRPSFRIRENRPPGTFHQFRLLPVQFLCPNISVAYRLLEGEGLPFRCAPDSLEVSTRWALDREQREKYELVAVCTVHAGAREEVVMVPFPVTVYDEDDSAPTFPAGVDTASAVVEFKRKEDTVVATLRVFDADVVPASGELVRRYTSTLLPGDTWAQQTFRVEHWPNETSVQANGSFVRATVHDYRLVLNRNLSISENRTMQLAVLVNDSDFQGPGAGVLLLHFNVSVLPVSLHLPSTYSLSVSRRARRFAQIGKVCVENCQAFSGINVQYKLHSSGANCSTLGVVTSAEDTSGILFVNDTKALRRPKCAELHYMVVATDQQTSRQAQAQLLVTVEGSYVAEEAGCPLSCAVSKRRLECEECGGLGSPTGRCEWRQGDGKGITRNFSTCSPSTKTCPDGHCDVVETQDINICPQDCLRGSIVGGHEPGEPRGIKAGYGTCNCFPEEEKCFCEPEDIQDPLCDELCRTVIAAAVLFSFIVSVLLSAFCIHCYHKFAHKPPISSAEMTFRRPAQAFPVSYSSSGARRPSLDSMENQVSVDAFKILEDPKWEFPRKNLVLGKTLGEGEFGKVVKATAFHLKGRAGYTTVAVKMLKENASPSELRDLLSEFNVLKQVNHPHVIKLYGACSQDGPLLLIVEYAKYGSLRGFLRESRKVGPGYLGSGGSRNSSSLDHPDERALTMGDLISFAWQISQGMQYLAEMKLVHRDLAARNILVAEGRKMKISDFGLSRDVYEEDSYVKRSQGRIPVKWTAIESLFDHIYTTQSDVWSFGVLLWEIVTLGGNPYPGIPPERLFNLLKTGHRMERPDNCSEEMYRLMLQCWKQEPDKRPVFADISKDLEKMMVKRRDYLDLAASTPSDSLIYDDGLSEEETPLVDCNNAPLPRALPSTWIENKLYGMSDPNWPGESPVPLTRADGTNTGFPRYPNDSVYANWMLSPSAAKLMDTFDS
Sequence of Receptor tyrosine-protein kinase erbB-3 (Homo sapiens) (P21860 whole entry): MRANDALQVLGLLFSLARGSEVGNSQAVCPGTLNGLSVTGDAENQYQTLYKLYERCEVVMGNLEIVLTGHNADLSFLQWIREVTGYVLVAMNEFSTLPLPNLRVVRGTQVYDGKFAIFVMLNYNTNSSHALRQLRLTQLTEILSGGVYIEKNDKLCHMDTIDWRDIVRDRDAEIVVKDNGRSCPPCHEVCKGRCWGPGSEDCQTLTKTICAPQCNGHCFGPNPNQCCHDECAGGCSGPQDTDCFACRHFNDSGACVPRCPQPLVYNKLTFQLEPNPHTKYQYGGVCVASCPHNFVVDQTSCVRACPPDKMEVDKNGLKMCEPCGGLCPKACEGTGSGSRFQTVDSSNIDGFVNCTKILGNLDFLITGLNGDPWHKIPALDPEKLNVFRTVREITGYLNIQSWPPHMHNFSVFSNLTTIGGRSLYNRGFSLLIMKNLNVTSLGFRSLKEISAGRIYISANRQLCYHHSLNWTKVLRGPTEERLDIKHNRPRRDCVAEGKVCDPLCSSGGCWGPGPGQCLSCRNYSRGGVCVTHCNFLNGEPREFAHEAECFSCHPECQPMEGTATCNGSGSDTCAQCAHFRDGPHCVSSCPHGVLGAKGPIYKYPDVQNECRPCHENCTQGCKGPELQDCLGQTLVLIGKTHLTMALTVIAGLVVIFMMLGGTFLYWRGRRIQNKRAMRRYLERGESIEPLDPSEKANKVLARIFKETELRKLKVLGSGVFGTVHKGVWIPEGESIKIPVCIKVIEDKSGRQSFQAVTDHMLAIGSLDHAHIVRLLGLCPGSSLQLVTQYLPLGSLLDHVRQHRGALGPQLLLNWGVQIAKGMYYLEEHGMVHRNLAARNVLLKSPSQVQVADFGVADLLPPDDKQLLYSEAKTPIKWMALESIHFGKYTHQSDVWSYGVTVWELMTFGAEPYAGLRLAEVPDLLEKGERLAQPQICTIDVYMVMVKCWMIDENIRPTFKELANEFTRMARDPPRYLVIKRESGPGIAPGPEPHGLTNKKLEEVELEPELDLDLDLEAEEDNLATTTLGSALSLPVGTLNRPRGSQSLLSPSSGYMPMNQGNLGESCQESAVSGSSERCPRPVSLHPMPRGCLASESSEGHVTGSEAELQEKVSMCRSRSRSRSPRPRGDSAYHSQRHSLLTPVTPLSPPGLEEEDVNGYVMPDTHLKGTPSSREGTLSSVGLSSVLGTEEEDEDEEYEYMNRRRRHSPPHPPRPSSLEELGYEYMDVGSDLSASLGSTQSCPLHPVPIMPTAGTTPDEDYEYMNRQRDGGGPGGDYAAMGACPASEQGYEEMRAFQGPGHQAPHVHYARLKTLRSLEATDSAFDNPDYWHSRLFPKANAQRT
Sequence of Serine/threonine-protein kinase/endoribonuclease IRE1 (Homo sapiens) (O75460 19-977 limits assumed): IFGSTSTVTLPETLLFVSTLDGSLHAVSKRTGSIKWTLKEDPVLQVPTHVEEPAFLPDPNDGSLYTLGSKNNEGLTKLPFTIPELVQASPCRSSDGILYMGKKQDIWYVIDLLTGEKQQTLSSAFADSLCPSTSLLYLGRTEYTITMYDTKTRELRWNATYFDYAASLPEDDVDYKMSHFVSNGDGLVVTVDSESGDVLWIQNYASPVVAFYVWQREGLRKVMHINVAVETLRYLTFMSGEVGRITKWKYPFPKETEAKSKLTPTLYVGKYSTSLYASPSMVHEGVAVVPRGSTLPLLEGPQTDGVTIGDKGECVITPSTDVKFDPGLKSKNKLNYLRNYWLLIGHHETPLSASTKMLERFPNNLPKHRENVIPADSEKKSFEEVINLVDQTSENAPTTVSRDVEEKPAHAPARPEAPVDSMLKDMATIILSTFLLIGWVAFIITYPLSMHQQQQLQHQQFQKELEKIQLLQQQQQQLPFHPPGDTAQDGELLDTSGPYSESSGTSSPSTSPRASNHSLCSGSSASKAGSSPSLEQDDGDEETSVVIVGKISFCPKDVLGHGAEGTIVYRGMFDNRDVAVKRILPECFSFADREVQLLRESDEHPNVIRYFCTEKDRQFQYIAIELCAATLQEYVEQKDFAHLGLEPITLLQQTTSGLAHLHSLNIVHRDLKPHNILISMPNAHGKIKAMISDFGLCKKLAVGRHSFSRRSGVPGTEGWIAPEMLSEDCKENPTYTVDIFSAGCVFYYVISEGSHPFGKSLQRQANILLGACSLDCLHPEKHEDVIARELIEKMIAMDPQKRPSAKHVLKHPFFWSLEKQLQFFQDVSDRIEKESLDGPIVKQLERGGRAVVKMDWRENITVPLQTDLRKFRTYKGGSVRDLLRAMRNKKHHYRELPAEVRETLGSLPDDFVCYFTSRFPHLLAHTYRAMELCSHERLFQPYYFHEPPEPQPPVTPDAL
Sequence of Ephrin type-A receptor 5 (Homo sapiens) (P54756 whole entry): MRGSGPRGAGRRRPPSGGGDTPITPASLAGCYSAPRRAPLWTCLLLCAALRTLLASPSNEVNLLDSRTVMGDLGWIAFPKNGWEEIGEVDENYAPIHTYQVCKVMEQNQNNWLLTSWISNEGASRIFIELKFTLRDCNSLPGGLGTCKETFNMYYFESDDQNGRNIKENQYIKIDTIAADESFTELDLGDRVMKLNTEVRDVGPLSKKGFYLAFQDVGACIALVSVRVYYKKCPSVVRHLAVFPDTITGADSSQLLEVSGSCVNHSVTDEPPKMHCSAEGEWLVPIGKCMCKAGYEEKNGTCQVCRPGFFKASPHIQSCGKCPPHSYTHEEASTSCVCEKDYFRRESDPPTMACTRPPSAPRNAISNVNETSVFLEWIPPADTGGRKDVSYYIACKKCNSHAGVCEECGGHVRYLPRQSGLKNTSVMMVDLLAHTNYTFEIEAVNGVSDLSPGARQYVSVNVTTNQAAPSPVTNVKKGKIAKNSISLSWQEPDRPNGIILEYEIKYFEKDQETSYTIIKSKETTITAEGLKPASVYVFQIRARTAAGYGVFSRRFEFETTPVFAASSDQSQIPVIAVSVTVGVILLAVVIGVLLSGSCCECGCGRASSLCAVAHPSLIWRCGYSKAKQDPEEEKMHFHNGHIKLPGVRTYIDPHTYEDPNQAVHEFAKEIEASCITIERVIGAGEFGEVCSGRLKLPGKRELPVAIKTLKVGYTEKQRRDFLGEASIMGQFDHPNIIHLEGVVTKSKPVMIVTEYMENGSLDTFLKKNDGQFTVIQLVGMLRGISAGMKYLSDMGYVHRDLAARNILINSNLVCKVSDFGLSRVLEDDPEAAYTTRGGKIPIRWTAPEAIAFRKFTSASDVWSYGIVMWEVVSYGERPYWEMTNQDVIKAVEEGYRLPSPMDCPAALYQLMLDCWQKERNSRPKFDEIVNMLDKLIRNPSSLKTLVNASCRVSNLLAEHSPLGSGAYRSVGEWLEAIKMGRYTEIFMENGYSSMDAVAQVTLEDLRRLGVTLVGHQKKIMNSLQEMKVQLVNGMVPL

For `COc1cc2ncnc(N[C@H](C)c3cccc4ccccc34)c2cc1OC`, the Activity in [1] was found to be 87%; in [2], 91%; in experiment [3], 71%; in experiment [4] it was 99%; in [5] it was 89%; in [6] it was 82%. Also, the Activity was determined as 100% in experiment [7]; 88% in [8]; 96% in experiment [9]; 86% in experiment [10]; 77% in experiment [11]; 100% in experiment [12]. The Activity in [13] is 96%; in experiment [14], 100%.
